From patent publication US11883387B2, “PqsR inverse agonists” (HELMHOLTZ-ZENTRUM FÜR INFEKTIONSFORSCHUNG GMBH, priority 2018, dated 2024) come the findings set out here.

Each structure is given as a SMILES string. Where only a bound is given, the exact number is not on record here.

Chain of PqsR (Q9I4X0 whole entry): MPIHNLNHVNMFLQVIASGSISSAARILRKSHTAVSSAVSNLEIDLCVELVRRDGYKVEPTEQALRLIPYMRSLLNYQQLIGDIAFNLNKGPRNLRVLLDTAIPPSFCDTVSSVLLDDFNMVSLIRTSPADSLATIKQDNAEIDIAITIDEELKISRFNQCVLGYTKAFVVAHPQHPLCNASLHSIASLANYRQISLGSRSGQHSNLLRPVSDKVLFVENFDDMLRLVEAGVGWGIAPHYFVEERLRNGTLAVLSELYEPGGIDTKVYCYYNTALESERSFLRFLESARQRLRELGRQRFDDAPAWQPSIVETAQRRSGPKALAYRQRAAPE

The assay concerns the target PqsR (Pseudomonas aeruginosa, UniProt Q9I4X0). As to the kind of experiment: E. coli based β-galactosidase reporter gene assay (PqsR inverse agonistic activity). It counts as cell-based. On the set-up: expressed in transfected cells; host or cells: Escherichia coli DH5α. Here is the method:
Inhibition of pqsR-dependent gene expression of test compounds was determined in an E. coli based β-galactosidase reporter gene assay.[19] Escherichia coli DH5α was transfected with pEAL08-2 plasmid encoding pqsR under control of promoter tac and β-galactosidase reporter gene lacZ under control of promoter pqsA. Antagonistic effects of compounds were evaluated in the presence of/in competition to 50 nM PQS. A positive control was used to ensure the reliability of individual assays. First, PQS was diluted in methanol and added to the wells of a glass coated 96-deep-well plate, and the solvent was evaporated. Then, compounds were added in 5 μL DMSO to final concentrations of 0.001-10 μM. Overnight cultures of E. coli DH5a×pEAL08-2 were diluted 1:100 in LB medium with ampicillin (50 μg/ml) and incubated at 37° C. with shaking until it reached an OD600 of 0.2. Finally, 995 μL of culture was added to each well and the p-galactosidase activity was determined by ortho-nitrophenyl-p-galactoside conversion in permeabilized cells after a 2.5 h incubation period (37° C., 180 rpm). OD600, OD420, and OD550 were measured using POLARstar Omega (BMG Labtech, Ortenberg, Germany), and the activity was expressed as ratio of the slope of β-galactosidase activity between basal control (no PQS) and solvent control. IC50 values of antagonists were determined by variation of the concentration of the test compounds.
(In a reporter assay the amount or activity of a reporter protein is the signal.)
The IC50 is the concentration at which inhibition is half-maximal. In turn, `FC(F)(F)c1nc(Cl)cc(SCc2nc3cc(Oc4ccccc4)ccc3[nH]2)n1` [Compound 124, 2-(((6-Chloro-2-(trifluoromethyl)pyrimidin-4-yl)thio)methyl)-5-phenoxy-1H-benzo[d]imidazole] returned an IC50 of 251 to 1000 nM.
`FC(F)(F)c1cc(SCc2nc3cc(Cl)ccc3[nH]2)ccn1` [Compound 123, 5-Chloro-2-(((2-(trifluoromethyl)pyridin-4-yl)thio)methyl)-1H-benzo[d]imidazole] gave an IC50 of 251 to 1000 nM.
`FC(F)(F)c1cc(NCc2cn(-c3ccc(Cl)cc3)nn2)ccn1` [Compound 008, N-((1-(4-chlorophenyl)-1H-1,2,3-triazol-4-yl)methyl)-2-(trifluoromethyl)pyridin-4-amine] yielded an IC50 of 51 to 250 nM.
In the case of `COc1ccc(-n2cc(CSc3ccnc(C(F)(F)F)c3)nn2)cc1` [Compound 062, 4-(((1-(4-methoxyphenyl)-1H-1,2,3-triazol-4-yl)methyl)thio)-2-(trifluoromethyl)pyridine], the IC50 fell in the range of 251 to 1000 nM.
The result for `FC(F)(F)c1cc(NCc2cn(-c3cccc(CN4CCOCC4)c3)nn2)ccn1` [Compound 002, N-((1-(3-(Morpholinomethyl)phenyl)-1H-1,2,3-triazol-4-yl)methyl)-2-(trifluoromethyl)pyridin-4-amine] reads 251 to 1000 nM.
As for `FC(F)(F)c1cc(SCc2nnn(-c3ccc(Cl)cc3)n2)ccn1` [Compound 138, 4-(((2-(4-Chlorophenyl)-2H-tetrazol-5-yl)methyl)thio)-2-(trifluoromethyl)pyridine], the IC50 was 251 to 1000 nM.
`FC(F)(F)c1cc(SCc2ccc(-c3cnc(Cl)nc3)cn2)ccn1` [Compound 113, 2-Chloro-5-(6-(((2-(trifluoromethyl)pyridin-4-yl)thio)methyl)pyridin-3-yl)pyrimidine] registered an IC50 of 251 to 1000 nM.
`Fc1cccc(Oc2ccc3[nH]c(CSc4ccnc(C(F)(F)F)c4)nc3c2)c1` [Compound 130, 5-(3-Fluorophenoxy)-2-(((2-(trifluoromethyl)pyridin-4-yl)thio)methyl)-1H-benzo[d]imidazole]: the IC50 is not above 50 nM.
The same measure for `Fc1cc(Br)ccc1-n1cc(CNc2ccnc(C(F)(F)F)c2)nn1` [Compound 024, N-((1-(4-Bromo-2-fluorophenyl)-1H-1,2,3-triazol-4-yl)methyl)-2-(trifluoromethyl)pyridin-4-amine]: 51 to 250 nM.
`FC(F)(F)c1cc(SCc2ccc(-c3ccc(Oc4ccccc4)cc3)cn2)ccn1` [Compound 109, 4-(((5-(4-phenoxyphenyl)pyridin-2-yl)methyl)thio)-2-(trifluoromethyl)pyridine] yielded an IC50 of 251 to 1000 nM.
`FC(F)(F)c1cc(NCc2cn(-c3ccc(CN4CCOCC4)cc3)nn2)ccn1` [Compound 019, N-((1-(4-(Morpholinomethyl)phenyl)-1H-1,2,3-triazol-4-yl)methyl)-2-(trifluoromethyl)pyridin-4-amine] came in with an IC50 of 251 to 1000 nM.
`COc1cc(-n2cc(CNc3ccnc(C(F)(F)F)c3)nn2)ccc1Br` [Compound 023, N-((1-(4-Bromo-3-methoxyphenyl)-1H-1,2,3-triazol-4-yl)methyl)-2-(trifluoromethyl)pyridin-4-amine]: the IC50 was in the range of 251 to 1000 nM.
`FC(F)(F)c1cc(SCc2cnc(-c3ccc(Cl)cc3)s2)ccn1` [Compound 067, 2-(4-Chlorophenyl)-5-(((2-(trifluoromethyl)pyridin-4-yl)thio)methyl) thiazole] came in with an IC50 of 251 to 1000 nM.
The same measure for `N#Cc1ccc(-n2cc(CNc3ccnc(C(F)(F)F)c3)nn2)cc1` [Compound 013, 4-(4-(((2-(trifluoromethyl)pyridin-4-yl)amino)methyl)-1H-1,2,3-triazol-1-yl)benzonitrile]: 251 to 1000 nM; for `N#Cc1ccc(-c2nc(CNc3ccnc(C(F)(F)F)c3)cs2)cc1` [Compound 085, 4-(4-(((2-(Trifluoromethyl)pyridin-4-yl)amino)methyl)thiazol-2-yl)benzonitrile]: 251 to 1000 nM; for `FC(F)(F)c1cc(NCc2cn(-c3cccc(Cl)c3)nn2)ccn1` [Compound 003, N-((1-(3-Chlorophenyl)-1H-1,2,3-triazol-4-yl)methyl)-2-(trifluoromethyl)pyridin-4-amine]: 51 to 250 nM.
`FC(F)(F)c1cc(SCc2cn(-c3ccc(Cl)cc3)nn2)ccn1` [Compound 055, 4-(((1-(4-chlorophenyl)-1H-1,2,3-triazol-4-yl)methyl)thio)-2-(trifluoromethyl)pyridine] displayed an IC50 of 251 to 1000 nM.
As for `COc1ncc(-c2ccc(CSc3ccnc(C(F)(F)F)c3)nc2)cc1Cl` [Compound 115, 5-Chloro-6-methoxy-6′-(((2-(trifluoromethyl)pyridin-4-yl)thio)methyl)-3,3′-bipyridine], the IC50 is 251 to 1000 nM.
Take `FC(F)(F)c1cc(SCc2nc(-c3ccc(Cl)cc3)no2)ccn1` [Compound 137, 3-(4-Chlorophenyl)-5-(((2-(trifluoromethyl)pyridin-4-yl)thio)methyl)-1,2,4-oxadiazole]: the IC50 fell in the range of 251 to 1000 nM.
The compound `Fc1ccc(-n2cc(CNc3ccnc(C(F)(F)F)c3)nn2)cc1` [Compound 010, N-((1-(4-Fluorophenyl)-1H-1,2,3-triazol-4-yl)methyl)-2-(trifluoromethyl)pyridin-4-amine] gave an IC50 of 51 to 250 nM.
In the case of `FC(F)(F)c1cc(NCc2cn(-c3ccc(-n4ncc5ncccc54)cc3)nn2)ccn1` [Compound 149, N-((1-(4-(1H-pyrazolo[4,3-b]pyridin-1-yl)phenyl)-1H-1,2,3-triazol-4-yl)methyl)-2-(trifluoromethyl)pyridin-4-amine], the IC50 was not above 50 nM.
For `COc1ccc(-c2nc(CNc3ccnc(C(F)(F)F)c3)cs2)cc1` [Compound 086, N-((2-(4-Methoxyphenyl)thiazol-4-yl)methyl)-2-(trifluoromethyl)pyridin-4-amine], the concentration for half-maximal inhibition (IC50) lay within 251 to 1000 nM.
Take `Fc1cc(-n2cc(CSc3ccnc(C(F)(F)F)c3)nn2)ccc1OC(F)(F)F` [Compound 064, 4-(((1-(3-fluoro-4-(trifluoromethoxy)phenyl)-1H-1,2,3-triazol-4-yl)methyl)thio)-2-(trifluoromethyl)pyridine]: the IC50 lay in the range of 51 to 250 nM.
The result for `FC(F)(F)c1cc(SCc2ccn(-c3ccc(Cl)cc3)n2)ccn1` [Compound 135, 4-(((1-(4-chlorophenyl)-1H-pyrazol-3-yl)methyl)thio)-2-(trifluoromethyl)-pyridine] reads 251 to 1000 nM; that for `FC(F)(F)c1cc(SCc2cn(-c3ccc(Br)cc3)nn2)ccn1` [Compound 058, 4-(((1-(4-Bromophenyl)-1H-1,2,3-triazol-4-yl)methyl)thio)-2-(trifluoromethyl)pyridine], 51 to 250 nM.
`FC(F)(F)c1cc(SCc2ccc(-c3ccc(Cl)nc3)cc2)ccn1` [Compound 110, 4-((4-(6-Chloropyridin-3-yl)benzyl)thio)-2-(trifluoromethyl)pyridine] showed an IC50 of 251 to 1000 nM.
Turning to `FC(F)(F)c1cc(NCc2ncc(-c3ccc(Cl)nc3)cn2)ccn1` [Compound 099, N-((5-(6-Chloropyridin-3-yl)pyrimidin-2-yl)methyl)-2-(trifluoromethyl)pyridin-4-amine], the IC50 lay in the range of 251 to 1000 nM.
Take `FC(F)(F)c1cc(SCc2nnc(-c3ccc(Cl)cc3)o2)ccn1` [Compound 136, 2-(4-Chlorophenyl)-5-(((2-(trifluoromethyl)pyridin-4-yl)thio)methyl)-1,3,4-oxadiazole]: the IC50 was in the range of 251 to 1000 nM.
The result for `FC(F)(F)c1cc(OCc2nc3ccc(Oc4ccccc4)cc3o2)ccn1` [Compound 133, 6-Phenoxy-2-(((2-(trifluoromethyl)pyridin-4-yl)oxy)methyl)benzo[d]oxazole] reads 251 to 1000 nM; that for `COc1c(C)cc(-c2ncc(CNc3ccnc(C(F)(F)F)c3)s2)cc1C` [Compound 075, N-((2-(4-Methoxy-3,5-dimethylphenyl)thiazol-5-yl)methyl)-2-(trifluoromethyl)pyridin-4-amine], 251 to 1000 nM.
Take `Fc1ccc(-n2cc(CNc3ccnc(C(F)(F)F)c3)nn2)cc1F` [Compound 020, N-((1-(3,4-Difluorophenyl)-1H-1,2,3-triazol-4-yl)methyl)-2-(trifluoromethyl)pyridin-4-amine]: the IC50 was 51 to 250 nM.
Take `O=C(c1cccc(-c2nc(CNc3ccnc(C(F)(F)F)c3)cs2)c1)C1CC1` [Compound 090, Cyclopropyl(3-(4-(((2-(trifluoromethyl)pyridin-4-yl)amino)methyl)thiazol-2-yl)phenyl)methanone]: the IC50 is 251 to 1000 nM.
On to `Fc1ccc(-n2cc(CNc3ccnc(C(F)(F)F)c3)nn2)cc1Cl` [Compound 027, N-((1-(3-Chloro-4-fluorophenyl)-1H-1,2,3-triazol-4-yl)methyl)-2-(trifluoromethyl)pyridin-4-amine], for which the IC50 is 251 to 1000 nM.
As to `FC(F)(F)Oc1cccc(-n2cc(CNc3ccnc(C(F)(F)F)c3)nn2)c1` [Compound 011, N-((1-(3-(Trifluoromethoxy)phenyl)-1H-1,2,3-triazol-4-yl)methyl)-2-(trifluoromethyl)pyridin-4-amine], the IC50 lay within 51 to 250 nM.
In turn, `FC(F)(F)c1ccc(-n2cc(CNc3ccnc(C(F)(F)F)c3)nn2)cc1` [Compound 014, 2-(Trifluoromethyl)-N-((1-(4-(trifluoromethyl)phenyl)-1H-1,2,3-triazol-4-yl)methyl)pyridin-4-amine] gave an IC50 of 51 to 250 nM.
